Measurements as given in US9120779B2, “Inhibitors of HCV NS5A” (PRESIDIO PHARMACEUTICALS, INC., priority 2008, dated 2015).

What follows are molecules tested on HCV genotype 1b replicon in Huh 7 cells (assay: HCV replicon assay (luciferase readout, 1b_Huh-Luc/Neo-ET cell line)). Conditions: Hepatitis C virus, Huh-7, 72 h, read-out: Inhibition of HCV genotype 1b, Table 3, 72 h incubation.
Assay type: cell-based
Method in brief: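 Inhibition expressed as percent of untreated control luciferase signal and fitted to a Hill-slope equation for EC50, with repeat determinations. Compounds were added in triplicate to Huh 7 cells stably expressing the genotype 1b luciferase replicon, with 72 h exposure.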

| SMILES | EC50 |
| --- | --- |
| COC(=O)N[C@H](C(=O)N1CCC[C@H]1c1ncc(-c2cc(F)c(N3CCC(c4cnc([C@@H]5CCCN5C(=O)[C@@H](NC(=O)OC)C(C)C)[nH]4)CC3)c(F)c2)[nH]1)C(C)C [compound 499] | < 1 nM |
| COC(=O)N[C@H](C(=O)N1CCCC[C@H]1c1ncc(C2CCN(c3c(F)cc(-c4cnc([C@@H]5CCCN5C(=O)[C@H](NC(=O)OC)c5ccccc5)[nH]4)cc3F)CC2)[nH]1)C(C)C [compound 500] | < 1 nM |
| COC(=O)N[C@@H](C(=O)N1CCC[C@H]1c1ncc(-c2cc(F)c(N3CCC(c4cnc([C@@H]5CCCCN5C(=O)[C@H](NC(=O)OC)C(C)C)[nH]4)CC3)c(F)c2)[nH]1)c1ccccc1 [compound 501] | < 1 nM |
| COC(=O)N[C@@H](C(=O)N1CCOC[C@H]1c1ncc(C2CCN(c3c(F)cc(-c4cnc([C@@H]5CCCN5C(=O)[C@H](NC(=O)C5CC5)c5ccccc5)[nH]4)cc3F)CC2)[nH]1)c1ccccc1 [compound 502] | < 1 nM |
| COC(=O)N[C@H](C(=O)N1CCC[C@H]1c1ncc(-c2cc(F)c(N3CCC(c4cnc([C@@H]5CCCCN5C(=O)[C@@H](NC(=O)OC)C(C)C)[nH]4)CC3)c(F)c2)[nH]1)C(C)C [compound 503] | < 1 nM |
| COC(=O)N[C@@H](C(=O)N1CCC[C@H]1c1ncc(-c2cc(F)c(N3CCC(c4cnc([C@@H]5CCCCN5C(=O)[C@H](NC(=O)OC)C(C)C)[nH]4)CC3)c(F)c2)[nH]1)C(C)C [compound 504] | > 1000 nM |
| COC(=O)N[C@H](C(=O)N(C)[C@@H](C)c1ncc(C2CCN(c3c(F)cc(-c4cnc([C@@H]5CCCN5C(=O)[C@@H](NC(=O)OC)C(C)C)[nH]4)cc3F)CC2)[nH]1)C(C)C [compound 505] | < 1 nM |
| COC(=O)N[C@@H](C(=O)N(C)[C@@H](C)c1ncc(C2CCN(c3c(F)cc(-c4cnc([C@@H]5CCCN5C(=O)[C@H](NC(=O)OC)c5ccccc5)[nH]4)cc3F)CC2)[nH]1)c1ccccc1 [compound 506] | < 1 nM |
| COC(=O)N[C@@H](C(=O)N1CCOC[C@H]1c1ncc(-c2cc(F)c(N3CCC(c4cnc([C@@H]5CCCN5C(=O)[C@H](NC(=O)OC)c5ccccc5)[nH]4)CC3)c(F)c2)[nH]1)c1ccccc1 [compound 507] | < 1 nM |
| CC(C)(C)OC(=O)N[C@@H](C(=O)N1CCOC[C@H]1c1ncc(-c2cc(F)c(N3CCC(c4cnc([C@@H]5CCCN5C(=O)[C@H](NC(=O)OC(C)(C)C)c5ccccc5)[nH]4)CC3)c(F)c2)[nH]1)c1ccccc1 [compound 508] | < 1 nM |
| COC(=O)N[C@H](C(=O)N1CCOC[C@H]1c1ncc(-c2cc(F)c(N3CCC(c4cnc([C@@H]5CCCN5C(=O)[C@@H](NC(=O)OC)C(C)C)[nH]4)CC3)c(F)c2)[nH]1)C(C)C [compound 509] | < 1 nM |
| O=C(N[C@@H](C(=O)N1CCOC[C@H]1c1ncc(-c2cc(F)c(N3CCC(c4cnc([C@@H]5CCCN5C(=O)[C@H](NC(=O)C5CC5)c5ccccc5)[nH]4)CC3)c(F)c2)[nH]1)c1ccccc1)C1CC1 [compound 510] | < 1 nM |
| C[C@@H](c1ncc(C2CCN(c3c(F)cc(-c4cnc([C@@H]5CCCN5C(=O)[C@H](NC(=O)C5CC5)c5ccccc5)[nH]4)cc3F)CC2)[nH]1)N(C)C(=O)[C@H](NC(=O)C1CC1)c1ccccc1 [compound 511] | < 1 nM |
| COC(=O)N[C@H](C(=O)N[C@@H](C)c1ncc(C2CCN(c3c(F)cc(-c4cnc([C@@H]5CCCN5C(=O)[C@@H](NC(=O)OC)C(C)C)[nH]4)cc3F)CC2)[nH]1)C(C)C [compound 512] | < 1 nM |
| C[C@H](NC(=O)[C@H](NC(=O)OC(C)(C)C)c1ccccc1)c1ncc(C2CCN(c3c(F)cc(-c4cnc([C@@H]5CCCN5C(=O)[C@H](NC(=O)OC(C)(C)C)c5ccccc5)[nH]4)cc3F)CC2)[nH]1 [compound 513] | < 1 nM |
| C[C@H](NC(=O)[C@H](NC(=O)C1CC1)c1ccccc1)c1ncc(C2CCN(c3c(F)cc(-c4cnc([C@@H]5CCCN5C(=O)[C@H](NC(=O)C5CC5)c5ccccc5)[nH]4)cc3F)CC2)[nH]1 [compound 514] | < 1 nM |
| COC(=O)N[C@H](C(=O)N[C@H](c1ncc(C2CCN(c3c(F)cc(-c4cnc([C@@H]5CCCN5C(=O)[C@@H](NC(=O)OC)C(C)C)[nH]4)cc3F)CC2)[nH]1)C(C)C)C(C)C [compound 515] | < 1 nM |
| COC(=O)N[C@@H](C(=O)N[C@@H](C)c1ncc(C2CCN(c3c(F)cc(-c4cnc([C@@H]5CCCN5C(=O)[C@H](NC(=O)OC)c5ccccc5)[nH]4)cc3F)CC2)[nH]1)c1ccccc1 [compound 517] | < 1 nM |
| COC(=O)N[C@@H](C(=O)N[C@@H](C)c1ncc(-c2cc(F)c(N3CCC(c4cnc([C@@H]5CCCN5C(=O)[C@H](NC(=O)OC)c5ccccc5)[nH]4)CC3)c(F)c2)[nH]1)c1ccccc1 [compound 518] | < 1 nM |
| COC(=O)N[C@H](C(=O)N[C@@H](C)c1ncc(-c2cc(F)c(N3CCC(c4cnc([C@@H]5CCCN5C(=O)[C@@H](NC(=O)OC)C(C)C)[nH]4)CC3)c(F)c2)[nH]1)C(C)C [compound 519] | < 1 nM |
| C[C@H](NC(=O)[C@H](NC(=O)OC(C)(C)C)c1ccccc1)c1ncc(-c2cc(F)c(N3CCC(c4cnc([C@@H]5CCCN5C(=O)[C@H](NC(=O)OC(C)(C)C)c5ccccc5)[nH]4)CC3)c(F)c2)[nH]1 [compound 520] | < 1 nM |

Same assay, conditions: Hepatitis C virus, Huh-7, 72 h, read-out: Inhibition of HCV genotype 1b, Table 4, 72 h incubation

| SMILES | EC50 |
| --- | --- |
| COC(=O)N[C@@H](C(=O)N1CCC[C@H]1c1nc2ccc(-c3ccc(-c4ccc5nc([C@@H]6CCCN6C(=O)[C@H](NC(=O)OC)c6ccccc6)[nH]c5c4)cc3)cc2[nH]1)c1ccccc1 [compound 550] | < 1 nM |
| COC(=O)N[C@H](C(=O)N1CCC[C@H]1c1nc2ccc(-c3ccc(-c4ccc5nc([C@@H]6CCCN6C(=O)[C@@H](NC(=O)OC)C(C)C)[nH]c5c4)cc3)cc2[nH]1)C(C)C [compound 551] | < 1 nM |
| CC(C)[C@H](NC(=O)N1CCCC1)C(=O)N1CCC[C@H]1c1nc2ccc(-c3ccc(-c4ccc5nc([C@@H]6CCCN6C(=O)[C@@H](NC(=O)N6CCCC6)C(C)C)[nH]c5c4)cc3)cc2[nH]1 [compound 552] | > 1000 nM |
| CC(C)[C@H](NC(=O)N1CC[C@H](O)C1)C(=O)N1CCC[C@H]1c1nc2ccc(-c3ccc(-c4ccc5nc([C@@H]6CCCN6C(=O)[C@@H](NC(=O)N6CC[C@H](O)C6)C(C)C)[nH]c5c4)cc3)cc2[nH]1 [compound 553] | > 1000 nM |
| CC(C)[C@H](NC(=O)OC(C)(C)C)C(=O)N1CCC[C@H]1c1nc2ccc(-c3ccc(-c4ccc5nc([C@@H]6CCCN6C(=O)[C@@H](NC(=O)OC(C)(C)C)C(C)C)[nH]c5c4)cc3)cc2[nH]1 [compound 554] | > 1000 nM |
| COC(=O)N[C@H](C(=O)N1CCC[C@H]1c1nc2ccc(-c3ccc(-c4ccc5nc([C@@H]6CCCN6C(=O)[C@@H](NC(=O)OC)[C@@H](C)OC)[nH]c5c4)cc3)cc2[nH]1)[C@@H](C)OC [compound 555] | < 1 nM |
| COC(=O)N[C@H](C(=O)N1CCC[C@H]1c1nc2ccc(-c3ccc(-c4ccc5nc([C@@H]6CCCN6C(=O)[C@@H](NC(=O)OC)C(C)C)[nH]c5c4)nc3)cc2[nH]1)C(C)C [compound 556] | < 1 nM |
| COC(=O)N[C@H](C(=O)N1CCC[C@H]1c1nc2ccc(-c3ccc(-c4ccc5nc([C@@H]6CCCN6C(=O)[C@@H](NC(=O)OC)[C@@H](C)O)[nH]c5c4)cc3)cc2[nH]1)[C@@H](C)O [compound 557] | < 1 nM |

Same assay, conditions: Hepatitis C virus, Huh-7, 72 h, read-out: Inhibition of HCV genotype 1b, Table 5, 72 h incubation

| SMILES | EC50 |
| --- | --- |
| CC(C)(C)OC(=O)N[C@@H](C(=O)N1CCC[C@H]1CNC(=O)C12CCC(c3ccc(-c4cnc([C@@H]5CCCN5C(=O)[C@H](NC(=O)OC(C)(C)C)c5ccccc5)[nH]4)cc3)(CC1)CC2)c1ccccc1 [compound 600] | 1 to 9.9 nM |
| CC(C)(C)OC(=O)N[C@H](C(=O)N1CCC[C@H]1c1ncc(-c2ccc(C34CCC(c5cnc([C@@H]6CCCN6C(=O)[C@H](NC(=O)OC(C)(C)C)c6ccccc6)[nH]5)(CC3)CC4)cc2)[nH]1)c1ccccc1 [compound 601] | < 1 nM |
| O=C(N[C@@H](C(=O)N1CCC[C@H]1CNC(=O)C12CCC(c3ccc(-c4cnc([C@@H]5CCCN5C(=O)[C@H](NC(=O)C5CC5)c5ccccc5)[nH]4)cc3)(CC1)CC2)c1ccccc1)C1CC1 [compound 602] | < 1 nM |
| O=C(N[C@@H](C(=O)N1CCC[C@H]1CNC(=O)C12CCC(c3ccc(-c4cnc([C@@H]5CCCN5C(=O)[C@H](NC(=O)N5CCOCC5)c5ccccc5)[nH]4)cc3)(CC1)CC2)c1ccccc1)N1CCOCC1 [compound 603] | 1 to 9.9 nM |
| COC(=O)N[C@@H](C(=O)N1CCC[C@H]1CNC(=O)C12CCC(c3ccc(-c4cnc([C@@H]5CCCN5C(=O)[C@H](NC(=O)OC)c5ccccc5)[nH]4)cc3)(CC1)CC2)c1ccccc1 [compound 604] | < 1 nM |
| CC(C)(C)OC(=O)N[C@@H](C(=O)N1CCC[C@H]1c1ncc(-c2ccc(C34CCC(c5cnc([C@@H]6CCCN6C(=O)[C@H](NC(=O)OC(C)(C)C)c6ccccc6)o5)(CC3)CC4)cc2)[nH]1)c1ccccc1 [compound 605] | 1 to 9.9 nM |
| COC(=O)N[C@@H](C(=O)N1CCC[C@H]1c1ncc(-c2ccc(C34CCC(c5cnc([C@@H]6CCCN6C(=O)[C@H](NC(=O)OC)c6ccccc6)[nH]5)(CC3)CC4)cc2)[nH]1)c1ccccc1 [compound 606] | < 1 nM |
| O=C(N[C@@H](C(=O)N1CCC[C@H]1c1ncc(-c2ccc(C34CCC(c5cnc([C@@H]6CCCN6C(=O)[C@H](NC(=O)C6CC6)c6ccccc6)[nH]5)(CC3)CC4)cc2)[nH]1)c1ccccc1)C1CC1 [compound 607] | < 1 nM |
| COC(=O)N[C@H](C(=O)N1CCC[C@H]1c1ncc(C23CCC(c4ccc(-c5cnc([C@@H]6CCCN6C(=O)[C@H](NC(=O)OC)c6ccccc6)[nH]5)cc4)(CC2)CC3)[nH]1)[C@@H](C)OC [compound 609] | < 1 nM |
| COC(=O)N[C@H](Cc1ccccc1)C(=O)N1CCC[C@H]1c1ncc(C23CCC(c4ccc(-c5cnc([C@@H]6CCCN6C(=O)[C@H](NC(=O)OC)c6ccccc6)[nH]5)cc4)(CC2)CC3)[nH]1 [compound 610] | < 1 nM |
| COC(=O)N[C@@H](C(=O)N1CCC[C@H]1c1ncc(-c2ccc(C34CCC(c5cnc([C@@H]6CCCN6C(=O)[C@@H](c6ccccc6)N6CCOCC6)[nH]5)(CC3)CC4)cc2)[nH]1)c1ccccc1 [compound 611] | < 1 nM |
